Measurements from ChEMBL document CHEMBL1201862, “PubChem BioAssay data set” (2004).
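All cell lines were grown in 96-well plates and treated with compound for 48 hours. Here, GI50 denotes the concentration required for 50% inhibition of growth.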 The source made the active and inactive calls. Rule as the data show it: active = GI50 up to about 1.1 µM and inactive = higher.

Key:
Assay in all cases: growth of human tumour cells (NCI), 48 h
DU-145 = tested on: DU-145
HOP-62 = tested on: HOP-62
HOP-92 = tested on: HOP-92
HT-29 = tested on: HT-29
Hs-578T = tested on: Hs-578T
M14 = tested on: M14
MCF7 = tested on: MCF7
MDA-MB-435 = tested on: MDA-MB-435
MDA-N = tested on: MDA-N
Malme-3M = tested on: Malme-3M
NCI-H23 = tested on: NCI-H23
OVCAR-3 = tested on: OVCAR-3
SF-268 = tested on: SF-268
SW-620 = tested on: SW-620
T47D = tested on: T47D
UO-31 = tested on: UO-31
NCI-H226 = tested on: NCI-H226
NCI-H522 = tested on: NCI-H522
A498 = tested on: A498

Measured: GI50

Cc1cc(C)nc(NS(=O)(=O)c2ccc(Nc3nnc(/C=C/c4c(O)ccc5ccccc45)c(=O)n3N)cc2)n1
inactive: DU-145 36.4 µM | HOP-62 37.4 µM | HOP-92 47.5 µM | HT-29 57.8 µM | Hs-578T 79.4 µM | M14 22.1 µM | MCF7 17.7 µM | MDA-MB-435 20.1 µM | MDA-N 25.6 µM | Malme-3M 36.6 µM | NCI-H23 19.1 µM | OVCAR-3 13.2 µM | SF-268 33.7 µM | SW-620 43.9 µM | T47D 11.1 µM | UO-31 26 µM

Cc1cc2nc3c(C#N)c4c(c(Nc5ccc(F)cc5)n3c2cc1C)CCC4
inactive: DU-145 > 100 µM | HOP-62 > 100 µM | HT-29 > 100 µM | Hs-578T 70.5 µM | M14 > 100 µM | MCF7 > 100 µM | MDA-MB-435 > 100 µM | MDA-N > 100 µM | Malme-3M 52.2 µM | NCI-H226 > 100 µM | NCI-H23 > 100 µM | NCI-H522 95.5 µM | OVCAR-3 > 100 µM | SF-268 > 100 µM | SW-620 > 100 µM | T47D > 100 µM

Clc1ccc(-c2nc3ccc4ccccc4c3c3c2CCCC3)cc1
inactive: A498 > 100 µM | DU-145 > 100 µM | HOP-62 > 100 µM | HT-29 44.6 µM | Hs-578T > 100 µM | M14 > 100 µM | MCF7 > 100 µM | MDA-MB-435 > 100 µM | MDA-N > 100 µM | Malme-3M > 100 µM | NCI-H226 > 100 µM | NCI-H23 > 100 µM | NCI-H522 > 100 µM | OVCAR-3 > 100 µM | SF-268 > 100 µM | SW-620 > 100 µM | UO-31 > 100 µM

CCOP(=O)(OCC)C1CC(n2cc(C)c(=O)[nH]c2=O)OC1CO (stereo not drawn)
inactive: A498 > 100 µM | DU-145 > 100 µM | HOP-62 > 100 µM | HOP-92 > 100 µM | HT-29 > 100 µM | Hs-578T > 100 µM | M14 > 100 µM | MCF7 > 100 µM | MDA-N > 100 µM | Malme-3M > 100 µM | NCI-H226 > 100 µM | NCI-H23 99.1 µM | NCI-H522 83.8 µM | OVCAR-3 > 100 µM | SF-268 > 100 µM | SW-620 > 100 µM | T47D > 100 µM | UO-31 > 100 µM

NCCN(CCN(C(=O)Nc1ccccc1)c1ccccc1)C(=O)Nc1ccccc1
inactive: A498 18.3 µM | DU-145 18.2 µM | HOP-62 16.7 µM | HOP-92 17.4 µM | HT-29 28.5 µM | Hs-578T 19.2 µM | M14 21.3 µM | MCF7 19.6 µM | MDA-N 20.3 µM | Malme-3M 17.1 µM | NCI-H226 32.2 µM | NCI-H23 24.3 µM | NCI-H522 19 µM | SF-268 18.6 µM | SW-620 22.5 µM | T47D 20.7 µM | UO-31 15.3 µM

COc1cc(OC)c2nc(C)c3c(c2c1)NCC3
inactive: A498 13.7 µM | DU-145 21.6 µM | HOP-62 7.74 µM | HOP-92 13.3 µM | HT-29 4.05 µM | Hs-578T 2.56 µM | M14 11.6 µM | MCF7 3.94 µM | MDA-MB-435 10 µM | MDA-N 8.09 µM | Malme-3M 10.4 µM | NCI-H226 3.47 µM | NCI-H23 6.34 µM | NCI-H522 7.73 µM | OVCAR-3 10.2 µM | SF-268 5.92 µM | SW-620 4.42 µM | UO-31 8.73 µM

Cc1ccc(C)c2c1CC(Cc1ccccc1C(=O)O)C2=O (stereo not drawn)
inactive: DU-145 > 100 µM | HOP-62 > 100 µM | HOP-92 > 100 µM | HT-29 > 100 µM | Hs-578T > 100 µM | M14 > 100 µM | MCF7 > 100 µM | MDA-MB-435 > 100 µM | MDA-N > 100 µM | Malme-3M > 100 µM | NCI-H226 > 100 µM | NCI-H23 > 100 µM | NCI-H522 > 100 µM | OVCAR-3 > 100 µM | SF-268 > 100 µM | SW-620 > 100 µM | T47D > 100 µM | UO-31 > 100 µM

O=C1NC(N2CCCC(CO)C2)=N/C1=C\c1ccc(Cl)cc1 (stereo not drawn)
inactive: DU-145 > 100 µM | HOP-62 > 100 µM | HOP-92 90.8 µM | HT-29 > 100 µM | Hs-578T > 100 µM | M14 > 100 µM | MCF7 > 100 µM | MDA-MB-435 > 100 µM | MDA-N > 100 µM | Malme-3M > 100 µM | NCI-H226 > 100 µM | NCI-H23 > 100 µM | NCI-H522 > 100 µM | OVCAR-3 > 100 µM | SF-268 > 100 µM | SW-620 > 100 µM | T47D 75.9 µM | UO-31 75 µM
